Experimental data taken from patent US20240376097A1, “BCL-2 Inhibitor” (BeiGene Ltd., priority 2020, published 2024).
Read-outs that look alike come from different tables or passages of the source.

How the values were obtained:
[1] = molecular target: Recombinant human Bcl-2 protein (Homo sapiens (Human), UniProt P10415); test: Bcl-2 TR-FRET Assay; format: binding
Outline: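 Displacement of FITC-labelled Bak peptide (0.5 nM) from 0.05 nM human Bcl-2, detected by TR-FRET with Tb-cryptate anti-6His antibody after 1 h at room temperature. Compounds, 10-point series, preincubated 0.5 h with protein in 20 mM potassium phosphate pH 7.5, 50 mM NaCl. IC50s fitted by four-parameter logistic.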

[2] = molecular target: recombinant human Bcl-2-G101V protein (Homo sapiens (Human), UniProt P10415, G101V); test: Bcl-2-G101V TR-FRET Assay; format: binding; conditions: Bcl-2 G101V mutant, TR-FRET; read-out: Biochemical assay (IC50, nM) Bcl-2 G101V
Outline: (§1)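 Measures how compounds block Bcl-2-G101V engaging its ligand, by TR-FRET with 337 nm excitation and a 490/520 nm emission ratio; dose-response data give IC50 via a four-parameter logistic model.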

[3] = tested on: recombinant human Bcl-2-G101V protein; test: Bcl-2-G101V TR-FRET Assay; format: binding; conditions: ratio of biochemical IC50 Bcl-2 G101V / Bcl-2 WT
Outline: as §1

[4] = tested on: RS4;11 (BCL-2 dependent acute lymphoblastic leukemia cell line); test: RS4;11 Cell Proliferation Assay; format: cell-based; conditions: Homo sapiens, RS4-11, RS4;11 cells, read-out: Cellular proliferation assay (IC50, nM) RS4
Outline: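 Viability measured via CellTiter-Glo luminescence after a 48 h, 37 °C exposure to compounds (10 points, highest 1 μM). Seeding was 50,000 RS4;11 cells per well in 10% FBS RPMI-1640; IC50 given as mean.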

[5] = tested on: BCL-2 G101V knock-in cell line H96 (derive from RS4;11); test: Bcl 2-G101V Knock-In RS4;11 Cell Proliferation Assay; format: cell-based; conditions: Homo sapiens, RS4;11 Bcl-2 G101V knock-in clone H96, 48 hrs, CellTiter-GLO, read-out: Cellular proliferation assay (IC50, nM) RS4
Outline: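 CellTiter-Glo luminescence after 48 h, 37 °C compound treatment (10 concentrations, maximum 1 μM or 10 μM) gave mean IC50 values. Cells were 50,000 per well of H96, a BCL2-G101V knock-in single clone derived from RS4;11 by Cas9 editing.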

[6] = molecular target: recombinant human Bcl-2 D103Y protein (Homo sapiens (Human), UniProt P10415, D103Y); test: Bcl-2-D103Y Biochemical Assay (TR-FRET); format: binding; conditions: for IC50: TR-FRET, FITC labeled Bak peptide; for Ratio of Bcl-2 D103Y/Bcl-2 WT: ratio of IC50
Outline: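 Compounds titrated against the Bcl-2 D103Y–ligand interaction; inhibition derived from the TR-FRET emission ratio 490 nm/520 nm after 337 nm excitation. Four-parameter logistic fitting gave IC50.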

[7] = Bcl-2 wild type, TR-FRET, read-out: Biochemical assay (IC50, nM) Bcl-2 WT
[8] = wild type Bcl-2, unit inferred, read-out: Bcl-2 WT

Structure (SMILES): CC(C)c1ccccc1C1CC(Oc2ccccc2)CCN1C1CC2(CCN(c3ccc(C(=O)NS(=O)(=O)c4ccc(NC[C@H]5CC[C@](C)(O)CC5)c([N+](=O)[O-])c4)c(Oc4cnc5[nH]ccc5c4)c3)CC2)C1 (stereo partly drawn) [Example 68, 2-((1H-pyrrolo[2,3-b]pyridin-5-yl)oxy)-N-((4-((((1r,4r)-4-hydroxy-4-methylcyclohexyl)methyl)amino)-3-nitrophenyl)sulfonyl)-4-(2-(2-(2-isopropylphenyl)-4-phenoxypiperidin-1-yl)-7-azaspiro [3.5]nonan-7-yl)benzamide]
- IC50 [1, 7]: 0.2 nM
- IC50 [1, 8]: 0.2 nM
- IC50 [2]: 0.81 nM
- Ratio of Bcl-2 G101V/WT [3]: 4
- IC50 [4]: 0.47 nM
- IC50 [5]: 4.7 nM
- IC50 [6]: 0.87 nM
- ratio of Bcl-2 D103Y/Bcl-2 wt, compared with F91b in WO2019210828 ([6]; comparison in words): significantly lower
- Ratio of Bcl-2 D103Y/Bcl-2 WT [6]: 4.3

Structure (SMILES): CC(C)c1ccccc1C1CN(Cc2cnn(C3CC3)c2)CCN1C1CC2(CCN(c3ccc(C(=O)NS(=O)(=O)c4ccc(NC[C@H]5CC[C@](C)(O)CC5)c([N+](=O)[O-])c4)c(Oc4cnc5[nH]ccc5c4)c3)CC2)C1 (stereo partly drawn) [Example 70, 2-((1H-pyrrolo[2,3-b]pyridin-5-yl)oxy)-4-(2-(4-((1-cyclopropyl-1H-pyrazol-4-yl)methyl)-2-(2-isopropylphenyl)piperazin-1-yl)-7-azaspiro[3.5]nonan-7-yl)-N-((4-((((1r,4r)-4-hydroxy-4-methylcyclohexyl)methyl)amino)-3-nitrophenyl)sulfonyl)benzamide]
- IC50 [1, 7]: 0.014 nM
- IC50 [1, 8]: 0.014 nM
- IC50 [2]: 0.13 nM
- Ratio of Bcl-2 G101V/WT [3]: 9
- IC50 [4]: 0.38 nM
- IC50 [5]: 1.5 nM
- IC50 [6]: 0.1 nM
- Ratio of Bcl-2 D103Y/Bcl-2 WT [6]: 7.1

Structure (SMILES): COc1nn(C)cc1CN1CCN(C2CC3(CCN(c4ccc(C(=O)NS(=O)(=O)c5ccc(NC[C@H]6CC[C@](C)(O)CC6)c([N+](=O)[O-])c5)c(Oc5cnc6[nH]ccc6c5)c4)CC3)C2)C(c2ccccc2C(C)C)C1 (stereo partly drawn) [Example 71, 2-((1H-pyrrolo[2,3-b]pyridin-5-yl)oxy)-N-((4-((((1r,4r)-4-hydroxy-4-methylcyclohexyl)methyl)amino)-3-nitrophenyl)sulfonyl)-4-(2-(2-(2-isopropylphenyl)-4-((3-methoxy-1-methyl-1H-pyrazol-4-yl)methyl)piperazin-1-yl)-7-azaspiro[3.5]nonan-7-yl)benzamide]
- IC50 [1, 7]: 0.02 nM
- IC50 [1, 8]: 0.02 nM
- IC50 [2]: 0.17 nM
- Ratio of Bcl-2 G101V/WT [3]: 8.3
- IC50 [4]: 0.43 nM
- IC50 [5]: 2 nM
- IC50 [6]: 0.15 nM
- Ratio of Bcl-2 D103Y/Bcl-2 WT [6]: 7.6

Structure (SMILES): COc1ccc(CN2CCN(C3CC4(CCN(c5ccc(C(=O)NS(=O)(=O)c6ccc(NC[C@H]7CC[C@](C)(O)CC7)c([N+](=O)[O-])c6)c(Oc6cnc7[nH]ccc7c6)c5)CC4)C3)C(c3ccccc3C3CC3)C2)cc1 (stereo partly drawn) [Example 73, 2-((1H-pyrrolo[2,3-b]pyridin-5-yl)oxy)-4-(2-(2-(2-cyclopropylphenyl)-4-(4-methoxybenzyl)piperazin-1-yl)-7-azaspiro[3.5]nonan-7-yl)-N-((4-((((1r,4r)-4-hydroxy-4-methylcyclohexyl)methyl)amino)-3-nitrophenyl)sulfonyl)benzamide]
- IC50 [1, 7]: 0.06 nM
- IC50 [1, 8]: 0.06 nM
- IC50 [2]: 0.47 nM
- Ratio of Bcl-2 G101V/WT [3]: 7.9
- IC50 [4]: 0.37 nM
- IC50 [5]: 2.4 nM
- IC50 [6]: 0.31 nM
- Ratio of Bcl-2 D103Y/Bcl-2 WT [6]: 5.1
